Data as given in ChEMBL document CHEMBL4229381, “New cytokinin derivatives possess UVA and UVB photoprotective effect on human skin cells and prevent oxidative stress” (Eur J Med Chem, 2018).
Activity calls are given as the source filed them. No cut-off for these calls is given here.

Experiments:
[1] = Cytotoxicity in human HaCaT cells assessed as cell viability at 3.9 uM after 24 hrs by neutral red uptake assay relative to control; assay type: cell-based; settings: read-out: Activity
NHDF [2] = experiment: Cytoprotection against phototoxicity in human NHDF cells assessed as increase in cell viability at 3.9 to 31.3 uM preincubated for 60 mins followed by 150 mJ/cm2 UVB irradiation and measured after 24 hrs by neutral red uptake assay; assay type: functional, cell-based
[3] = Phototoxicity in human NHDF cells assessed as cell viability at 7.8 uM preincubated for 60 mins followed by 5 J/cm2 UVA irradiation and measured after 24 hrs by neutral red uptake assay relative to control; assay type: cell-based; settings: read-out: Activity
[4] = Phototoxicity in human NHDF cells assessed as cell viability at 125 uM preincubated for 60 mins followed by 5 J/cm2 UVA irradiation and measured after 24 hrs by neutral red uptake assay relative to control; assay type: cell-based; settings: read-out: Activity
Amaranthus caudatus = experiment: Growth promoting activity in Amaranthus caudatus var. atropurpurea seeds by measuring betacyanin at 10^-4 mol/L after 48 hrs relative to control; assay type: functional
[5] = Phototoxicity in human NHDF cells assessed as cell viability at 15.6 uM preincubated for 60 mins followed by 5 J/cm2 UVA irradiation and measured after 24 hrs by neutral red uptake assay relative to control; assay type: cell-based; settings: read-out: Activity
[6] = Cytotoxicity in human NHDF cells assessed as cell viability at 62.5 uM after 24 hrs by neutral red uptake assay relative to control; assay type: cell-based; settings: read-out: Activity
[7] = Phototoxicity in human HaCaT cells assessed as cell viability at 62.5 uM preincubated for 60 mins followed by 7.5 J/cm2 UVA irradiation and measured after 24 hrs by neutral red uptake assay relative to control; assay type: cell-based; settings: read-out: Activity
[8] = Stability of the compound in pH 6 solution at 10^-4 M after 24 hrs by HPLC analysis; assay type: physicochemical; settings: read-out: Stability
[9] = Phototoxicity in human HaCaT cells assessed as cell viability at 125 uM preincubated for 60 mins followed by 7.5 J/cm2 UVA irradiation and measured after 24 hrs by neutral red uptake assay relative to control; assay type: cell-based; settings: read-out: Activity
[10] = Phototoxicity in human HaCaT cells assessed as cell viability at 15.6 uM preincubated for 60 mins followed by 7.5 J/cm2 UVA irradiation and measured after 24 hrs by neutral red uptake assay relative to control; assay type: cell-based; settings: read-out: Activity
NHDF [11] = experiment: Potency index, ratio of compound effect to rosmarinic acid effect for cytoprotection against phototoxicity in human NHDF cells assessed as increase in cell viability at 3.9 uM preincubated for 60 mins followed by 7.5 J/cm2 UVA irradiation and measured after 24 hrs by neutral red uptake assay; assay type: functional
[12] = Stability of the compound in pH 4 solution at 10^-4 M after 24 hrs by HPLC analysis; assay type: physicochemical; settings: read-out: Stability
[13] = Cytotoxicity in human NHDF cells assessed as cell viability at 7.8 uM after 24 hrs by neutral red uptake assay relative to control; assay type: cell-based; settings: read-out: Activity
BJ = experiment: Cytotoxicity in human BJ cells assessed as reduction in cell viability at 50 uM after 24 hrs by resazurin dye-based fluorescence assay relative to control
[14] = Stability of the compound in pH 6 solution at 10^-4 M after 1 hr by HPLC analysis; assay type: physicochemical; settings: read-out: Stability
[15] = Phototoxicity in human NHDF cells assessed as cell viability at 3.9 uM preincubated for 60 mins followed by 5 J/cm2 UVA irradiation and measured after 24 hrs by neutral red uptake assay relative to control; assay type: cell-based; settings: read-out: Activity
HaCaT [16] = experiment: Potency index, ratio of compound effect to rosmarinic acid effect for cytoprotection against phototoxicity in human HaCaT cells assessed as increase in cell viability at 3.9 uM preincubated for 60 mins followed by 10 J/cm2 UVA irradiation and measured after 24 hrs by neutral red uptake assay; assay type: functional
HaCaT [17] = experiment: Potency index, ratio […] for cytoprotection against phototoxicity in human HaCaT cells assessed as increase in cell viability at 3.9 preincubated for 60 mins followed by 150 mJ/cm2 UVB irradiation and measured after 24 hrs by neutral red uptake assay; assay type: functional
[18] = Phototoxicity in human NHDF cells assessed as cell viability at 62.5 uM preincubated for 60 mins followed by 5 J/cm2 UVA irradiation and measured after 24 hrs by neutral red uptake assay relative to control; assay type: cell-based; settings: read-out: Activity
[19] = Phototoxicity in human NHDF cells assessed as cell viability at 31.3 uM preincubated for 60 mins followed by 5 J/cm2 UVA irradiation and measured after 24 hrs by neutral red uptake assay relative to control; assay type: cell-based; settings: read-out: Activity
[20] = Stability of the compound in pH 4 solution at 10^-4 M after 1 hr by HPLC analysis; assay type: physicochemical; settings: read-out: Stability
HaCaT [21] = experiment: Potency index, ratio of compound effect to rosmarinic acid effect for cytoprotection against phototoxicity in human HaCaT cells assessed as increase in cell viability at 3.9 uM preincubated for 60 mins followed by 150 mJ/cm2 UVB irradiation and measured after 24 hrs by neutral red uptake assay; assay type: functional
[22] = Cytotoxicity in human NHDF cells assessed as cell viability at 125 uM after 24 hrs by neutral red uptake assay relative to control; assay type: cell-based; settings: read-out: Activity
[23] = Phototoxicity in human HaCaT cells assessed as cell viability at 3.9 uM preincubated for 60 mins followed by 7.5 J/cm2 UVA irradiation and measured after 24 hrs by neutral red uptake assay relative to control; assay type: cell-based; settings: read-out: Activity
Nicotiana tabacum = experiment: Growth promoting activity in tobacco callus assessed as callus weight at 10^-5 mol/L after 4 weeks relative to control; assay type: functional
[24] = Stability of the compound in pH 5 solution at 10^-4 M after 24 hrs by HPLC analysis; assay type: physicochemical; settings: read-out: Stability
HaCaT [25] = experiment: Cytoprotection against phototoxicity in human HaCaT cells assessed as increase in cell viability at 3.9 uM preincubated for 60 mins followed by 10 J/cm2 UVA irradiation and measured after 24 hrs by neutral red uptake assay; assay type: functional, cell-based
[26] = Cytotoxicity in human NHDF cells assessed as cell viability at 15.6 uM after 24 hrs by neutral red uptake assay relative to control; assay type: cell-based; settings: read-out: Activity
[27] = Cytotoxicity in human HaCaT cells assessed as cell viability at 62.5 uM after 24 hrs by neutral red uptake assay relative to control; assay type: cell-based; settings: read-out: Activity
Caenorhabditis elegans = experiment: Protection against juglone-induced oxidative stress in wild type Caenorhabditis elegans N2 at 100 uM preincubated for 3 days followed by juglone addition and measured after 4 hrs by inverted microscopic analysis; assay type: functional, organism-based
[28] = Cytotoxicity in human HaCaT cells assessed as cell viability at 7.8 uM after 24 hrs by neutral red uptake assay relative to control; assay type: cell-based; settings: read-out: Activity
[29] = Cytotoxicity in human HaCaT cells assessed as cell viability at 15.6 uM after 24 hrs by neutral red uptake assay relative to control; assay type: cell-based; settings: read-out: Activity
[30] = Cytotoxicity in human NHDF cells assessed as cell viability at 31.3 uM after 24 hrs by neutral red uptake assay relative to control; assay type: cell-based; settings: read-out: Activity
NHDF [31] = experiment: Cytoprotection against phototoxicity in human NHDF cells assessed as increase in cell viability at 31.3 uM preincubated for 60 mins followed by 150 mJ/cm2 UVB irradiation and measured after 24 hrs by neutral red uptake assay; assay type: functional, cell-based
[32] = Stability of the compound in pH 3 solution at 10^-4 M after 1 hr by HPLC analysis; assay type: physicochemical; settings: read-out: Stability

remaining at 24 h, 100 µM [8]: 100% | remaining at 24 h, 100 µM [12]: 52.1% | remaining at 1 h, 100 µM [14]: 100% | remaining at 1 h, 100 µM [20]: 99.4% | remaining at 24 h, 100 µM [24]: 94.2% | remaining at 1 h, 100 µM [32]: 94.6%
SMILES: c1csc(CNc2ncnc3c2ncn3C2CCCO2)c1 (stereo unspecified)
viability at 24 h, 3.9 µM [1]: 101% | Activity (NHDF [2]): Active | viability at 24 h, 7.8 µM [3]: 102% | viability at 24 h, 125 µM [4]: 106% | Activity (Amaranthus caudatus): 81% | viability at 24 h, 15.6 µM [5]: 101% | viability at 24 h, 62.5 µM [6]: 108% | viability at 24 h, 62.5 µM [7]: 130% | viability at 24 h, 125 µM [9]: 127% | viability at 24 h, 15.6 µM [10]: 121% | Ratio (NHDF [11]): >6 | viability at 24 h, 7.8 µM [13]: 103% | Activity (BJ): < 10% | viability at 24 h, 3.9 µM [15]: 98% | Ratio (HaCaT [16]): 3 | Ratio (HaCaT [17]): >2 | viability at 24 h, 62.5 µM [18]: 103% | viability at 24 h, 31.3 µM [19]: 106% | Ratio (HaCaT [21]): >2 | viability at 24 h, 125 µM [22]: 108% | viability at 24 h, 3.9 µM [23]: 123% | Activity (Nicotiana tabacum): 105% | Activity (HaCaT [25]): Active | viability at 24 h, 15.6 µM [26]: 100% | viability at 24 h, 62.5 µM [27]: 104% | Activity (Caenorhabditis elegans): Active | viability at 24 h, 7.8 µM [28]: 101% | viability at 24 h, 15.6 µM [29]: 100% | viability at 24 h, 31.3 µM [30]: 107% | Activity (NHDF [31]): Active
